From patent publication US20230242526A1 (Zentaur Therapeutics International Limited, priority 2020, published 2023)
pIC50: −log10 of the molar value.

Assays:
[1] = target: CDK9/Cyclin T1 (Homo sapiens, UniProt P50750); assay: CDK9/Cyclin T1 kinase assay; assay type: biochemical
Method: (1). Recombinant enzymes CDK1, CDK2, CDK4, CDK6, CDK9, cyclin B1, cyclin A2, cyclin D3, cyclin E1, cyclin T1 were cloned and purified at Wuxi Biortus Biochemistry Co. Ltd.
(8) Peptide substrate-CDK9 (Ahx-GSRTPMY-NH2, Scilight-Peptide, Cat. C0769102).
The test compounds were dissolved and diluted in DMSO. A stock DMSO solution of the test compound of the invention was prepared by dissolving the compound in DMSO to form a 10 mM solution.
2 μL of testing compound solutions and 5 μL of enzyme solution were added into the 384-well microplate followed by a 10 minute incubation. The reaction was then initiated by the addition of 5 μL of peptide substrate and ATP mixture solution and incubated at 27° C. for 30 minutes. The enzyme reaction in each well was terminated by adding 4 μL of 120 mM EDTA solution. Each assay was carried out in duplicates.
DMSO was used as negative control (0%) for enzyme activity. 20 μM Staurosporine was used as positive control (100%) for enzyme activity.
Plates were read for fluorescence on a Caliper EZ Reader II by separating the fluorescent labeled substrate from the enzyme phosphorylation product by electrophoresis. Data were collected and analyzed using GraphPad Prism version 6.0 software.
Dose-response curves were plotted from inhibition data generated, each in duplicate, from 10 point serial dilutions of inhibitory compounds. Concentration of compound was plotted against % kinase activity. To generate IC50 values, the dose-response curves were then fitted to a standard sigmoidal curve and IC50 values were derived by nonlinear regression analysis.

[2] = Body weight in the HCC1806 xenograft study; assay type: in vivo, BALB/c nude mice; settings: 30 mg/kg P.O. BID; for Body weight D0 / Body weight D3 / Body weight D7 / Body weight D10 / Body weight D14 / Body weight D17 / Body weight D21: group mean; for Body weight D0: day 0; for Body weight D3: day 3; for Body weight D7: day 7; for Body weight D10: day 10; for Body weight D14: day 14; for Body weight D17: day 17; for Body weight D21: day 21
Method: When the average tumor volume reached 80-120 mm^3, 42 tumor-bearing mice were randomized into 7 groups (6 mice per group) according to tumor volume. The grouping day was defined as Day 0. Treatment was applied immediately after grouping animals on the same day.
The body weight of the testing animals were measured twice a week after grouping. Tumor volumes by the length and width of the tumor were measured by electric calipers and the tumor volume (V) was calculated as follows: V=(length×width^2)/2. The individual relative tumor volume (RTV) was calculated as follows: RTV=Vt/V0, where Vt was the volume on each day, and V0 was the volume at the beginning of the treatment.
Results were expressed as mean±S.E.M. Comparisons between two groups were made by corresponding test, p<0.05 were considered to be significant.

[3] = Pharmacokinetic profiling in mouse (i.v. and i.g.); assay type: in vivo, male ICR mice; settings: male, ICR, plasma; for Vd: read-out: Vdss; for bioavailability: calculated by using the AUC0-t, read-out: F (bioavailability)
Method: (1). Kolliphor® HS 15 (formerly regarded as Solutol® HS 15) a non-ionic surfactant, was used as a solubilizer in preparing the parenteral formulations; (2). DMA (N,N-dimethylacetamide); (3). saline; and (4). Tween 80; (5) acetyl nitrile. […] To a glass flask was added 6.0 μmol of the test compound, and 0.265 mL of DMA. The glass flask was vortexed to allow the complete dissolution of the solid. Then 0.265 mL of 30% Solution HS 15 was added to the test compound solution in DMA and was vortexed to allow homogeneous mixing. Lastly, 2.12 mL of saline was added to the mixture in the glass flask. The flask was vortexed to allow homogeneous mixing. […] A clear liquid test sample iv formulation was obtained. An aliquot of 100 μL of the test sample iv formulation was placed into a 1.5 mL EP tube and was kept at 2-8° C. for future sample concentration quantification by HPLC. […] To a glass flask was added 27 μmol of the test compound and 4.047 mL of 0.5% MC with 01. % Tween 80. The flask and the mixture was vortexed followed by sonication for about 15 minutes to allow even distribution of the solids. A white suspension of the text sample was obtained. […] Ltd. Before receiving the test compound formulations, the animals were on fasting overnight. On the day of dosing, the animals were fed at 4h after the dosing. During the tests, the animals were free to drink water. Each test compound was tested in duplicate with different routes of administration: in one set of tests, mice received test compounds by iv injection route, and in the other set of tests, mice received the test compounds by IG administration. The schedules of the test for each mouse are illustrated in Table 5 below. [table] 100 μL blood sample was taken from the veins in animal eyelid. The whole blood sample was placed in anticoagulation tubes treated with EDTA-K2. The whole blood sample was centrifuged at 1500 g for 10 min. The plasma at the upper level was collected into test tubes. An aliquot of 10 μL of sample was added with 100 μL ACN which contains of Verapamil, 5 ng/mL, Glibenclamide, 50 ng/mL, Tolbutamide, 200 ng/mL and Diclofenac, 200 ng mL-1 for protein precipitation. The mixture was vortexed for 1 min, then centrifuged at 13000 rpm for 8 min. Then 70 μL of supernatant was added with 70 μL water, then vortexed for 10 min. An aliquot of 5 μL of the mixture was injected into the LC-MS/MS system. LC-MS/MS (API 4000: LC-MS-MS-001), column: […] Sample injection volume is 5 μL. Flow rate is 0.8 mL/min. The detection wavelength is set at 254 nm.

Sequence of CDK9/Cyclin T1 (P50750 whole entry): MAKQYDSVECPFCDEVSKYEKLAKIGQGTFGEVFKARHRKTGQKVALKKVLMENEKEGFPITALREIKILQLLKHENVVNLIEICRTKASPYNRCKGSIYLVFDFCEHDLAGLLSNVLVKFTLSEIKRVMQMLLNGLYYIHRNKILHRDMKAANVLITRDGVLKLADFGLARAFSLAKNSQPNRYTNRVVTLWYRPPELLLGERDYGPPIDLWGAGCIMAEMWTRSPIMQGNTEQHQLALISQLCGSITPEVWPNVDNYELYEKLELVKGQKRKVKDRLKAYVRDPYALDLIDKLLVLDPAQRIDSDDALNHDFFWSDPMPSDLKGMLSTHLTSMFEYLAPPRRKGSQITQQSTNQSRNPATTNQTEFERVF
Sequence of CDK9/Cyclin T1 (O60563 whole entry partner): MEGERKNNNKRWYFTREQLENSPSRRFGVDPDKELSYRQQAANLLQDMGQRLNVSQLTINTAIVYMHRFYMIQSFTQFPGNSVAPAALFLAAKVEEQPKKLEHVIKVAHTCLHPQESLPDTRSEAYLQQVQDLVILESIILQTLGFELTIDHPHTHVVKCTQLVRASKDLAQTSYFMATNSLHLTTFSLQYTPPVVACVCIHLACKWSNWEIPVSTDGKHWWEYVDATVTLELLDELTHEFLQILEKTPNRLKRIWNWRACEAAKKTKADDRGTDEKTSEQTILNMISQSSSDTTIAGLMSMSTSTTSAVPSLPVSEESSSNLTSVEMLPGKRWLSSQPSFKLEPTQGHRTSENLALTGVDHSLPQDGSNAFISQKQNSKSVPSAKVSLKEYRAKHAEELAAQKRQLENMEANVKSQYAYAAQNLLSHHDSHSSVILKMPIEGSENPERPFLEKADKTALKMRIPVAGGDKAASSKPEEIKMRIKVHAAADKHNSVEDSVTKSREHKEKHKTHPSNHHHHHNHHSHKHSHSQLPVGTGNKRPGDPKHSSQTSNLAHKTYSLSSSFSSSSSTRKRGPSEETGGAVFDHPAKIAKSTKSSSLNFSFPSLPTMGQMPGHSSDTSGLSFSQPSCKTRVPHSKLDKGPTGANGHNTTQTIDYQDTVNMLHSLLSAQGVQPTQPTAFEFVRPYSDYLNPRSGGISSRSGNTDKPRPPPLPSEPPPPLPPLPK

## [2H]C(F)(F)c1cc2cnc(NC3CCN(S(C)(=O)=O)CC3)nc2n([C@@H]2CCC[C@@]2(C)O)c1=O [Comp. 28, (−)-6-(difluoromethyl-d)-8-((1R,2R)-2-hydroxy-2-methylcyclopentyl)-2-((1-(methylsulfonyl)piperidin-4-yl)amino)pyrido[2,3-d]pyrimidin-7(8H)-one]
[1]
  pIC50: 5.44
[2]
  body weight compared with G1 vehicle: significant lower on day 17
  Body weight D0: 17.93 g
  Body weight D3: 17.81 g
  Body weight D7: 17.78 g
  Body weight D10: 17.66 g
  Body weight D14: 17.75 g
  Body weight D17: 17.84 g
  Body weight D21: 16.80 g

## C[C@@]1(O)CCC[C@H]1n1c(=O)c(C(F)F)cc2cnc(NC3CCN(S(C)(=O)=O)CC3)nc21 [Comp. 5, (−)-6-(difluoromethyl)-8-((1R,2R)-2-hydroxy-2-methylcyclopentyl)-2-((1-(methylsulfonyl)piperidin-4-yl)amino)pyrido[2,3-d]pyrimidin-7(8H)-one, reference compound]
[1]
  pIC50: 5.46
[3]; iv, i.v. 5 mg/kg
  AUC(0-t): 1360 ng·h/mL
  C0: 5020 ng/mL
  clearance: 61.2 mL/min/kg
  half-life: 22 min
  Vd: 1 L/kg
[3]; po, i.g. 30 mg/kg
  AUC(0-t): 1190 ng·h/mL
  Cmax: 1040 ng/mL
  Tmax: 15 min
  half-life: 166 min
  bioavailability: 14.6%
[2]
  Body weight D0: 18.43 g
  Body weight D3: 18.07 g
  Body weight D7: 18.12 g
  Body weight D10: 17.82 g
  Body weight D14: 18.25 g
  Body weight D17: 18.48 g
  Body weight D21: 17.80 g

## Cc1cc2cnc(NC3CCN(S(C)(=O)=O)CC3)nc2n([C@@H]2CCC[C@@]2(C)O)c1=O [Comp. 4, (−)-8-(2-hydroxy-2-methylcyclopentyl)-6-methyl-2-((1-(methylsulfonyl)piperidin-4-yl)amino)pyrido[2,3-d]pyrimidin-7(8H)-one, reference compound]
[3]; iv, i.v. 5 mg/kg
  AUC(0-t): 967 ng·h/mL
  C0: 8300 ng/mL
  clearance: 86.1 mL/min/kg
  half-life: 11.7 min
  Vd: 0.611 L/kg
[3]; po, i.g. 30 mg/kg
  AUC(0-t): 245 ng·h/mL
  Cmax: 211 ng/mL
  Tmax: 15 min
  half-life: 134 min
  bioavailability: 4.2%
[2]
  body weight compared with G1 vehicle: significant higher on day 21
  Body weight D0: 18.11 g
  Body weight D3: 17.90 g
  Body weight D7: 18.56 g
  Body weight D10: 19.59 g
  Body weight D14: 19.85 g
  Body weight D17: 20.49 g
  Body weight D21: 20.80 g

## [2H]C([2H])([2H])c1cc2cnc(NC3CCN(S(C)(=O)=O)CC3)nc2n([C@@H]2CCC[C@@]2(C)O)c1=O [Comp. 37, (−)-8-((1R,2R)-2-hydroxy-2-methylcyclopentyl)-6-(methyl-d3)-2-((1-(methylsulfonyl)piperidin-4-yl)amino)pyrido[2,3-d]pyrimidin-7(8H)-one]
[3]; iv, i.v. 5 mg/kg
  AUC(0-t): 1290 ng·h/mL
  C0: 7420 ng/mL
  clearance: 64.7 mL/min/kg
  half-life: 19.8 min
  Vd: 0.703 L/kg
[3]; po, i.g. 30 mg/kg
  AUC(0-t): 605 ng·h/mL
  Cmax: 522 ng/mL
  Tmax: 15 min
  half-life: 103 min
  bioavailability: 7.8%
[2]
  Body weight D0: 18.25 g
  Body weight D3: 18.23 g
  Body weight D7: 18.10 g
  Body weight D10: 18.01 g
  Body weight D14: 18.80 g
  Body weight D17: 18.60 g
  Body weight D21: 18.17 g
